# Measurements from patent publication US6582902B1, “Method for deriving epitopes” (priority 1992, dated 2003).
# No end group written: not given here.
# Assays:
# [1] = system: anti-g10 serum; assay: Competition for immunoprecipitation of [32P] D10 RNA by anti-g10 serum; assay type: binding, rabbit; settings: FIG. 5A (125 mg competitor) and FIG. 5B (g10 peptide 37-444 nM)
# Protocol: [^32P] labeled in vitro transcribed D10 RNA or [^35S] labeled in vitro translated g10 fusion protein (g10-U1A) was immunoprecipitated by the anti-g10 serum in the presence of various competitors. D10 RNA and g10 fusion protein bound in the immunoprecipitations were analyzed using denaturing polyacrylamide gels and autoradiography. Panel A: D10 RNA immunoprecipitations with: 1, no competitor; 2, no g10 antiserum added; 3, 125 mg of g10 peptide; 4, 125 mg of bovine serum albumin; 5, 125 mg of control peptide (sequence ETPEEREERRR) (SEQ ID NO:7). Panel B: D10 immunoprecipitations after incubation with increasing amounts of g10 peptide. Lanes: 1, no competitor; 2, 37 nM; 3, 74 nM; 4, 148 nM; 5, 222 nM; 6, 444 nM. Panel C: immunoprecipitations of a g10 containing fusion protein (g10-U1-A) using various competitors. Lanes: 1, no competitor; 2, preimmune rabbit serum; 3, 7.4 nM g10 peptide; 4, 0.7 nM D10 RNA; 5, 0.7 nM unrelated RNA (cDNA encoding loop sequence: ACGTTCGTCG)(SEQ ID NO:8). Panel D: immunoprecipitation of g10-U1A fusion protein after incubation with increasing amounts of D10 RNA. Lanes: 1, no competitor; 2, 0.0175 nM; 3, 0.035 nM; 4, 0.35 nM; 5, 0.7 nM; 6, 1.05 nM.
# Competition experiments were performed by addition of the various competitors to [^32P] labeled RNA or [^35S] labeled in vitro translated g10-snRNP-A fusion protein prior to immunoprecipitation. Bound RNAs were analyzed on 6% denaturing acrylamide gels and proteins on 10% SDS-PAGE gels, followed by autoradiography. Antibody-RNA complexes were formed in the presence of competitor g10 peptide or control peptide (FIG. 5A), or with increasing amounts of g10 peptide (FIG. 5B), and uncompeted RNA was recovered by immunoprecipitation.
# [2] = system: g10-reactive antibodies (anti-g10 serum); assay: Competition for immunoprecipitation of [35S] g10-U1-A fusion protein by anti-g10 serum; assay type: binding, rabbit; settings: FIG. 3B lanes 8-12; g10 peptide 27.8-750 nM; control peptide 25 mM
# Source text: (§1) Panel A: Western blot of E. coli extracts containing various U1-A protein constructs. All extracts were produced from induced E. coli cells containing recombinant pET-8c T7 expression vectors in accordance with known techniques. See F. Studier et al., Meth. Enzym. 185, 60-89 (1991). U1-A cDNA was cloned into pET-8c either attached or not attached to the g10 peptide. Lanes: 1, 5 and 9: the pET-8c vector alone; 2, 6 and 10: g10-U1-A protein; 3, 7 and 11: U1-A protein; 4, 8 and 12: total HeLa cell extracts. Lanes 1-4 were probed with pre-immune rabbit serum; lanes 5-8 were probed with anti-g10 serum; and lanes 9-12 were probed with a U1/U2-specific autoimmune serum (patient). EW reacts with U1 RNA, U1-70K (70 kDa), U1-A (31 kDa) and U2-A′ (28.4 kDa) (lane 12). Panel B: Immunoprecipitation and competition analysis of [^35S]-methionine-labeled U1-A and g10-U1-A proteins expressed by in vitro transcription, and subsequent translation in rabbit reticulocyte lysates. Lanes: 1 and 2 show the amount of U1-A and g10-U1-A translation product, respectively, added to each immunoprecipitation reaction; 3: blank; 4 and 5: U1-A and g10-U1-A precipitated with serum EW (reactive with U1-A); 6 and 7: U1-A and g10-U1-A, respectively, precipitated with anti-g10 serum. In lanes 8-12, g10-U1-A was precipitated with anti-g10 serum in the presence of varying amounts of competitors as follows: lanes 8-11 contained the g10 peptide at concentrations of 27.8, 83.3, 250 and 750 nM, respectively; lane 12 contained a control peptide (sequence GKSRGFAFVEFK-amide) (SEQ ID NO:4) at a concentration of 25 mM. The faint lower band in all lanes represents either a degradation product or a premature translation termination product and is seen consistently in U1-A translations.
# [^32P] labeled in vitro transcribed D10 RNA or [^35S] labeled in vitro translated g10 fusion protein (g10-U1A) was immunoprecipitated by the anti-g10 serum in the presence of various competitors. D10 RNA and g10 fusion protein bound in the immunoprecipitations were analyzed using denaturing polyacrylamide gels and autoradiography. […]
# [3] = system: U1/U2-specific autoimmune serum (patient); assay: Western blot probed with control anti-U1-A autoimmune serum (patient); assay type: binding, human; settings: FIG. 3A lanes 9-12
# Source text: as §1
# (§2) A thirteen amino acid peptide was synthesized representing the amino-terminus of g10-fusion proteins expressed from the Studier T7 expression vectors (F. Studier et al., Meth. Enzym. 185, 60-89 (1991)) (peptide sequence: MASMTGGQQMGRC-carboxyl amide (SEQ ID NO:11), purchased from Multiple Peptide Systems). […]
# [4] = system: anti-g10 serum; assay: Western blot of E. coli / HeLa extracts probed with anti-g10 serum; assay type: binding, rabbit; settings: FIG. 3A lanes 5-8; serum diluted 1:2000
# Source text: as §1, §2
# [5] = system: anti-g10 serum; assay: Immunoprecipitation of [35S]-labeled in vitro translated proteins with anti-g10 serum; assay type: binding, rabbit; settings: FIG. 3B lanes 6-7
# Source text: as §1, with “In lanes 8-12, g10-U1-A was precipitated with anti-g10 serum in the presence of varying amounts of competitors as follows: lanes 8-11 contained the g10 peptide at concentrations of 27.8, 83.3, 250 and 750 nM, respectively; lane 12 contained a control peptide (sequence GKSRGFAFVEFK-amide) (SEQ ID NO:4) at a concentration of 25 mM. The faint lower band in all lanes represents either a degradation product or a premature translation termination product and is seen consistently in U1-A translations.” left out
Substance,effect of competitor on D10 RNA precipitation by the anti-g10 serum [1],inhibition of anti-g10 antibody binding to g10-U1-A by free peptide [2],reactivity with control anti-U1-A serum in Western blot [3],reactivity with anti-g10 serum in Western blot [4],precipitation by anti-g10 serum (immunoprecipitation) [5]
ETPEEREERRR [unrelated peptide],neither bovine serum albumin nor an unrelated peptide showed any effect,,,,
"MASMTGGQQMGRC-carboxyl amide (MASMTGGQQMGRC-NH2) [g10 peptide, reference compound]",inhibited RNA binding,inhibited,,,
authentic HeLa cell U1-A: endogenous U1-A (31 kDa) in total HeLa cell extracts,,,reacted,not,
bovine serum albumin: bovine serum albumin used as control competitor,neither bovine serum albumin nor an unrelated peptide showed any effect,,,,
g10-U1-A fusion protein: g10-tagged U1-snRNP A protein,,,reacted,reacted,precipitated
recombinant U1-A: U1-A protein expressed without the g10 peptide,,,reacted,not,not
